# Reference: PubChem BioAssay AID256 (DTP/NCI, 2004)
# “And” between values parts separate entries of the source, which are not always exact repeats. Equal values may be shown once. Toxic doses and inconclusive results are not listed.
# Test system: CD2F1 mice, L1210 leukemia ip, survival T/C
# Assay: NCI In Vivo Anticancer Drug Screen. Data for tumor model L1210 Leukemia (intraperitoneal) in CD2F1 (CDF1) mice
# Conditions: higher = longer survival
# Procedure, shortened: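 Ratio T/C, where T is the treated-group value and C the vehicle-dosed control value, from mice implanted with a transplantable tumor.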
# [1] = endpoint: mean survival time, dose: 12.5 mg/kg/injection, schedule: Q01DX009 (ip), vehicle: saline
# [2] = endpoint: mean survival time, dose: 25.0 mg/kg/injection, schedule: Q01DX009 (ip), vehicle: saline
# [3] = endpoint: mean survival time, dose: 50.0 mg/kg/injection, schedule: Q01DX009 (ip), vehicle: saline
# [4] = endpoint: mean survival time, dose: 100.0 mg/kg/injection, schedule: Q01DX009 (ip), vehicle: saline with Tween-80
# [5] = endpoint: mean survival time, dose: 100.0 mg/kg/injection, schedule: Q04DX003 (ip), vehicle: saline with Tween-80
# [6] = endpoint: mean survival time, dose: 200.0 mg/kg/injection, schedule: Q04DX003 (ip), vehicle: saline with Tween-80
# [7] = endpoint: mean survival time, dose: 400.0 mg/kg/injection, schedule: Q04DX003 (ip), vehicle: saline with Tween-80
smiles,measurement,setting,value
NC(=S)N/N=C/c1ccc(O)cn1,T/C,[1],124 % of control
same,T/C,"endpoint: mean survival time, dose: 12.5 mg/kg/injection, schedule: Q03HX024 (ip), vehicle: saline",153 % of control and 163 % of control
same,T/C,"endpoint: mean survival time, dose: 18.8 mg/kg/injection, schedule: Q01DX009 (ip), vehicle: saline with Tween-80",162 % of control
same,T/C,"endpoint: mean survival time, dose: 25.0 mg/kg/injection, schedule: Q01DX009 (ip), vehicle: saline with Tween-80",155 % of control
same,T/C,[2],150 % of control and 170 % of control
same,T/C,"endpoint: mean survival time, dose: 25.0 mg/kg/injection, schedule: Q01DX009 (oral), vehicle: saline",94 % of control
same,T/C,"endpoint: mean survival time, dose: 25.0 mg/kg/injection, schedule: Q03HX024 (ip), vehicle: saline",168 % of control and 217 % of control
same,T/C,"endpoint: mean survival time, dose: 37.5 mg/kg/injection, schedule: Q01DX009 (ip), vehicle: saline with Tween-80",160 % of control and 166 % of control
same,T/C,"endpoint: mean survival time, dose: 50.0 mg/kg/injection, schedule: Q01DX009 (ip), vehicle: saline with Tween-80",183 % of control
same,T/C,[3],151 % of control and 154 % of control
same,T/C,"endpoint: mean survival time, dose: 50.0 mg/kg/injection, schedule: Q01DX009 (oral), vehicle: saline",95 % of control
same,T/C,"endpoint: mean survival time, dose: 50.0 mg/kg/injection, schedule: Q03HX024 (ip), vehicle: saline",162 % of control and 211 % of control
same,T/C,[4],102 % of control
same,T/C,"endpoint: mean survival time, dose: 100.0 mg/kg/injection, schedule: Q01DX009 (oral), vehicle: saline",103 % of control
same,T/C,"endpoint: mean survival time, dose: 150.0 mg/kg/injection, schedule: Q01DX009 (ip), vehicle: saline with Tween-80",103 % of control
same,T/C,"endpoint: mean survival time, dose: 200.0 mg/kg/injection, schedule: Q01DX009 (ip), vehicle: saline",115 % of control and 110 % of control
same,T/C,"endpoint: mean survival time, dose: 200.0 mg/kg/injection, schedule: Q01DX009 (oral), vehicle: saline",102 % of control
same,T/C,"endpoint: mean survival time, dose: 400.0 mg/kg/injection, schedule: Q01DX009 (ip), vehicle: saline",88 % of control and 92 % of control
same,T/C,"endpoint: mean survival time, dose: 400.0 mg/kg/injection, schedule: Q01DX009 (oral), vehicle: saline",114 % of control
same,T/C,"endpoint: median survival time, dose: 20.0 mg/kg/injection, schedule: Q03HX024 (ip), vehicle: saline",152 % of control and 566 % of control
same,T/C,"endpoint: median survival time, dose: 21.8 mg/kg/injection, schedule: Q03HX008 (ip), vehicle: suspension in saline",185 % of control
same,T/C,"endpoint: median survival time, dose: 22.5 mg/kg/injection, schedule: Q03HX024 (ip), vehicle: suspension in saline",214 % of control
same,T/C,"endpoint: median survival time, dose: 32.6 mg/kg/injection, schedule: Q03HX008 (ip), vehicle: suspension in saline",188 % of control
same,T/C,"endpoint: median survival time, dose: 40.0 mg/kg/injection, schedule: Q03HX024 (ip), vehicle: saline",210 % of control and 566 % of control
same,T/C,"endpoint: median survival time, dose: 45.0 mg/kg/injection, schedule: Q03HX024 (ip), vehicle: suspension in saline",238 % of control
same,T/C,"endpoint: median survival time, dose: 45.0 mg/kg/injection, schedule: Q04DX003 (ip), vehicle: suspension in saline",119 % of control
same,T/C,"endpoint: median survival time, dose: 48.6 mg/kg/injection, schedule: Q03HX008 (ip), vehicle: suspension in saline",232 % of control
same,T/C,"endpoint: median survival time, dose: 50.0 mg/kg/injection, schedule: Q03HX024 (ip), vehicle: saline",566 % of control
same,T/C,"endpoint: median survival time, dose: 60.0 mg/kg/injection, schedule: Q03HX024 (ip), vehicle: saline",566 % of control
same,T/C,"endpoint: median survival time, dose: 80.0 mg/kg/injection, schedule: Q03HX024 (ip), vehicle: saline",119 % of control
same,T/C,"endpoint: median survival time, dose: 90.0 mg/kg/injection, schedule: Q04DX003 (ip), vehicle: suspension in saline",122 % of control
same,T/C,"endpoint: median survival time, dose: 108.3 mg/kg/injection, schedule: Q03HX008 (ip), vehicle: suspension in saline",94 % of control
same,T/C,"endpoint: median survival time, dose: 161.6 mg/kg/injection, schedule: Q04DX003 (ip), vehicle: suspension in saline",152 % of control
same,T/C,"endpoint: median survival time, dose: 180.0 mg/kg/injection, schedule: Q03HX024 (ip), vehicle: suspension in saline",110 % of control
same,T/C,"endpoint: median survival time, dose: 241.2 mg/kg/injection, schedule: Q04DX003 (ip), vehicle: suspension in saline",156 % of control
same,T/C,"endpoint: median survival time, dose: 360.0 mg/kg/injection, schedule: Q04DX003 (ip), vehicle: suspension in saline",176 % of control and 211 % of control
same,T/C,"endpoint: median survival time, dose: 537.3 mg/kg/injection, schedule: Q04DX003 (ip), vehicle: suspension in saline",184 % of control
same,T/C,"endpoint: median survival time, dose: 720.0 mg/kg/injection, schedule: Q04DX003 (ip), vehicle: suspension in saline",122 % of control
CC(=O)NNC(=O)c1ccccc1CO,T/C,"endpoint: mean survival time, dose: 12.5 mg/kg/injection, schedule: Q01DX009 (ip), vehicle: other",89 % of control
same,T/C,"endpoint: mean survival time, dose: 25.0 mg/kg/injection, schedule: Q01DX009 (ip), vehicle: other",90 % of control
same,T/C,"endpoint: mean survival time, dose: 50.0 mg/kg/injection, schedule: Q01DX009 (ip), vehicle: other",97 % of control
same,T/C,"endpoint: mean survival time, dose: 100.0 mg/kg/injection, schedule: Q01DX009 (ip), vehicle: other",94 % of control
same,T/C,"endpoint: mean survival time, dose: 200.0 mg/kg/injection, schedule: Q01DX009 (ip), vehicle: other",101 % of control
O=S(=O)(O)C(O)c1cccnc1 (stereo not given),T/C,[4],98 % of control
same,T/C,"endpoint: mean survival time, dose: 100.0 mg/kg/injection, schedule: Q04DX003 (ip), vehicle: saline sonified",95 % of control
same,T/C,"endpoint: mean survival time, dose: 200.0 mg/kg/injection, schedule: Q01DX009 (ip), vehicle: saline with Tween-80",96 % of control
same,T/C,"endpoint: mean survival time, dose: 200.0 mg/kg/injection, schedule: Q04DX003 (ip), vehicle: saline sonified",105 % of control
same,T/C,"endpoint: mean survival time, dose: 400.0 mg/kg/injection, schedule: Q01DX009 (ip), vehicle: saline with Tween-80",95 % of control
same,T/C,"endpoint: mean survival time, dose: 400.0 mg/kg/injection, schedule: Q04DX003 (ip), vehicle: saline sonified",89 % of control
O=C(c1ccccc1)c1c(-c2ccccc2)c(-c2ccccc2)c(-c2ccccc2)c(-c2ccccc2)c1-c1ccccc1,T/C,[5],89 % of control
same,T/C,[6],90 % of control
same,T/C,[7],90 % of control
O=C1OC(=O)C2C3C=CC(O3)C12 (stereo not given),T/C,"endpoint: mean survival time, dose: 10.0 mg/kg/injection, schedule: Q01DX009 (ip), vehicle: saline with Tween-80",100 % of control
same,T/C,[1],105 % of control
same,T/C,"endpoint: mean survival time, dose: 12.5 mg/kg/injection, schedule: Q04DX003 (ip), vehicle: saline",95 % of control
same,T/C,"endpoint: mean survival time, dose: 20.0 mg/kg/injection, schedule: Q01DX009 (ip), vehicle: saline with Tween-80",98 % of control
same,T/C,[2],94 % of control
same,T/C,"endpoint: mean survival time, dose: 25.0 mg/kg/injection, schedule: Q04DX002 (ip), vehicle: saline",104 % of control
same,T/C,"endpoint: mean survival time, dose: 25.0 mg/kg/injection, schedule: Q04DX003 (ip), vehicle: saline",98 % of control
same,T/C,[3],102 % of control
same,T/C,"endpoint: mean survival time, dose: 50.0 mg/kg/injection, schedule: Q04DX002 (ip), vehicle: saline",104 % of control
same,T/C,"endpoint: mean survival time, dose: 50.0 mg/kg/injection, schedule: Q04DX003 (ip), vehicle: saline",95 % of control
same,T/C,"endpoint: mean survival time, dose: 100.0 mg/kg/injection, schedule: Q04DX002 (ip), vehicle: saline",97 % of control and 98 % of control
O=C1CC2CCCCN2C2=C1CCCC2 (stereo not given),T/C,"endpoint: mean survival time, dose: 100.0 mg/kg/injection, schedule: Q04DX003 (ip), vehicle: acetone",97 % of control
O=C1c2ccccc2C(=O)c2c1cccc2N1CCOCC1,T/C,"endpoint: mean survival time, dose: 25.0 mg/kg/injection, schedule: Q04DX002 (ip), vehicle: Klucel (hydroxypropylcellulose) (HPC)",96 % of control
same,T/C,"endpoint: mean survival time, dose: 50.0 mg/kg/injection, schedule: Q04DX002 (ip), vehicle: Klucel (hydroxypropylcellulose) (HPC)",102 % of control
same,T/C,"endpoint: mean survival time, dose: 100.0 mg/kg/injection, schedule: Q04DX002 (ip), vehicle: Klucel (hydroxypropylcellulose) (HPC)",102 % of control
same,T/C,"endpoint: mean survival time, dose: 200.0 mg/kg/injection, schedule: Q04DX002 (ip), vehicle: Klucel (hydroxypropylcellulose) (HPC)",96 % of control
O=C1CSC(c2cccs2)N1c1nncs1 (stereo not given),T/C,"endpoint: median survival time, dose: 25.0 mg/kg/injection, schedule: Q01DX005 (ip), vehicle: Klucel (hydroxypropylcellulose) (HPC)",94 % of control
same,T/C,"endpoint: median survival time, dose: 50.0 mg/kg/injection, schedule: Q01DX005 (ip), vehicle: Klucel (hydroxypropylcellulose) (HPC)",102 % of control and 104 % of control and 110 % of control
same,T/C,"endpoint: median survival time, dose: 100.0 mg/kg/injection, schedule: Q01DX005 (ip), vehicle: Klucel (hydroxypropylcellulose) (HPC)",94 % of control and 96 % of control and 103 % of control
same,T/C,"endpoint: median survival time, dose: 200.0 mg/kg/injection, schedule: Q01DX005 (ip), vehicle: Klucel (hydroxypropylcellulose) (HPC)",116 % of control and 94 % of control (2×)
same,T/C,"endpoint: median survival time, dose: 400.0 mg/kg/injection, schedule: Q01DX005 (ip), vehicle: Klucel (hydroxypropylcellulose) (HPC)",107 % of control
same,T/C,"endpoint: median survival time, dose: 800.0 mg/kg/injection, schedule: Q01DX005 (ip), vehicle: Klucel (hydroxypropylcellulose) (HPC)",115 % of control
C[N+]1(C)CCC(c2ccccc2)(c2ccccc2)C(=O)C1,T/C,"endpoint: mean survival time, dose: 75.0 mg/kg/injection, schedule: Q01DX001 (ip), vehicle: saline",101 % of control
same,T/C,"endpoint: mean survival time, dose: 150.0 mg/kg/injection, schedule: Q01DX001 (ip), vehicle: saline",101 % of control
O=S(=O)(O)/[N+]([O-])=N/O,T/C,"endpoint: mean survival time, dose: 100.0 mg/kg/injection, schedule: Q01DX009 (ip), vehicle: saline sonified",103 % of control
same,T/C,"endpoint: mean survival time, dose: 200.0 mg/kg/injection, schedule: Q01DX009 (ip), vehicle: saline sonified",95 % of control
same,T/C,"endpoint: mean survival time, dose: 400.0 mg/kg/injection, schedule: Q01DX009 (ip), vehicle: saline sonified",101 % of control
OC(c1ccccc1)(c1ccccc1)C(Cc1ccccc1)Cc1ccccc1,T/C,[5],102 % of control
same,T/C,[6],100 % of control
same,T/C,[7],94 % of control
C#CC1(OC(=O)c2ccccc2)CCCCC1,T/C,[5],98 % of control
same,T/C,[6],96 % of control
same,T/C,[7],102 % of control
